One may read the pIC50 as −log10 of the IC50, conventionally taken in molar units. The term pKi denotes −log10 of the Ki, conventionally taken in molar units.

The results in this text go back to ChEMBL document CHEMBL1909046, “DrugMatrix in vitro pharmacology data”.

In data set [1] the target is T1, 5-hydroxytryptamine receptor 2C (Homo sapiens, UniProt P28335).
T1 sequence (P28335 whole entry): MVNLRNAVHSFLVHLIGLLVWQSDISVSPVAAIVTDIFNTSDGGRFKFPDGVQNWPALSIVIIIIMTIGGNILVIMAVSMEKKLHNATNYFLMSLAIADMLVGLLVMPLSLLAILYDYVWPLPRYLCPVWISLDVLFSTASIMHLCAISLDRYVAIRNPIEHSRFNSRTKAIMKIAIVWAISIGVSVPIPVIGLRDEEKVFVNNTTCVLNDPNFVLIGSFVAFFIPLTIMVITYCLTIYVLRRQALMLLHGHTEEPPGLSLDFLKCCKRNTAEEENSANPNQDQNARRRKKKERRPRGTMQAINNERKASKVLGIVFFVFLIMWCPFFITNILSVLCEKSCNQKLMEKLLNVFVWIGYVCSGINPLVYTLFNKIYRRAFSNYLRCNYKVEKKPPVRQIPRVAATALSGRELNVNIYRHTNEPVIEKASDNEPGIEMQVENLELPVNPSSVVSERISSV
The data set is described as follows: DRUGMATRIX: Serotonin (5-Hydroxytryptamine) 5-HT2C radioligand binding (ligand: [3H] Mesulergine). In kind it is cell membranes, CHO-K1, Membrane. As to conditions: Not Active = under 50% inhibition at 10 µM; for IC50: cho-k1.

The target of data set [2] is Voltage-gated inwardly rectifying potassium channel KCNH2 (Homo sapiens, UniProt Q12809). Conditions: hek293. Also: in other assays of this panel Not Active means under 50% inhibition at 10 µM.
Chain of Voltage-gated inwardly rectifying potassium channel KCNH2 (Q12809 whole entry): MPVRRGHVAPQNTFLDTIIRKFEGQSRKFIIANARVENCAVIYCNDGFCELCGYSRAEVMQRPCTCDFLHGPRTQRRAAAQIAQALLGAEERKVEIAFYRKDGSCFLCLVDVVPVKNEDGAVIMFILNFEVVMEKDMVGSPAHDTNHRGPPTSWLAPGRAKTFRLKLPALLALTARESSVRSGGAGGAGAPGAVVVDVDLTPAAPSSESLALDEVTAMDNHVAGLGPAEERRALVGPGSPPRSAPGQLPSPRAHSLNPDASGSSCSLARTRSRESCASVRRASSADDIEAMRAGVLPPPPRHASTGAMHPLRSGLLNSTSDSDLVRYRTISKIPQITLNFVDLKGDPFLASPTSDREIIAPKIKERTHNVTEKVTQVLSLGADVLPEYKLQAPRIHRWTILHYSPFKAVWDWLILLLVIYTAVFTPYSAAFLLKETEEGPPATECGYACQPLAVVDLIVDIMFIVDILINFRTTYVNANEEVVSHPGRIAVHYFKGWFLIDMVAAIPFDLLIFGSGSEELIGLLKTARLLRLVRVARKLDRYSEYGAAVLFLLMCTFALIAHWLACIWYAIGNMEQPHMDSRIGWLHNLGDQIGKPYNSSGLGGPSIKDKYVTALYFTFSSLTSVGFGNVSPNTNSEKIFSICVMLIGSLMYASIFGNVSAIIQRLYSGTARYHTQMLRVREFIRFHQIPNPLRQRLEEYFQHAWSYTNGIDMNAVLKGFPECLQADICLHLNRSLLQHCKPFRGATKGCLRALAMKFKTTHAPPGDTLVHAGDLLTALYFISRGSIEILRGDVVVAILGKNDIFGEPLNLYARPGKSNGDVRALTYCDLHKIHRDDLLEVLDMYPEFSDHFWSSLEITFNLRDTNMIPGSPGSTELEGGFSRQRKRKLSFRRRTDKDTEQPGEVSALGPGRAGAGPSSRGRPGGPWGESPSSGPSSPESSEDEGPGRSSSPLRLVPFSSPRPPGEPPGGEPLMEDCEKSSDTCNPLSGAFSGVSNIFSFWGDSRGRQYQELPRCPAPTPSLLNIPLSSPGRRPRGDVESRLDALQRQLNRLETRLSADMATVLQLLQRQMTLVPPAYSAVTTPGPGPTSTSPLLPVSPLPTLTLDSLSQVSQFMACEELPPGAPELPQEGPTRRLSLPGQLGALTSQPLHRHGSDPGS
Another data set concerns the target Mu-type opioid receptor (Homo sapiens, UniProt P35372). The data set is described as follows: DRUGMATRIX: Opiate mu (OP3, MOP) radioligand binding (ligand: [3H] Diprenorphine). In kind it is cell membranes, CHO-K1, Membrane. Conditions: cho-k1; Not Active = under 50% inhibition at 10 µM.
Data set [3] deals with T2, Alpha-2A adrenergic receptor (Homo sapiens, UniProt P08913).
T2 sequence (P08913 whole entry): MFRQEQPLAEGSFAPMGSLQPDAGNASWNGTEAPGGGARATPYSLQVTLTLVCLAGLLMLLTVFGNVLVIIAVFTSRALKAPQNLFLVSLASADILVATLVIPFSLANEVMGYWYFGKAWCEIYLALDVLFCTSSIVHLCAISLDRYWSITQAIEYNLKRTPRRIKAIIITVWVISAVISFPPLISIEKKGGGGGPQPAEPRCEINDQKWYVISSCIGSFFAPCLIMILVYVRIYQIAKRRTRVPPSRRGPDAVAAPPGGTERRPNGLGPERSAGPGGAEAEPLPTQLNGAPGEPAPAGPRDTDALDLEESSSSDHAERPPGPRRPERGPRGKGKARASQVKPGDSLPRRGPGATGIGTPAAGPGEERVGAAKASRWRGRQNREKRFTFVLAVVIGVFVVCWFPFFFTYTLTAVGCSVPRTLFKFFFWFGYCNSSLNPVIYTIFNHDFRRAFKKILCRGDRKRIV
In kind it is cell membranes, Sf9, Membrane. As to conditions: for IC50: sf9.

The next data set deals with T3, Cytochrome P450 2A6 (Homo sapiens, UniProt P11509).
T3 sequence (P11509 whole entry): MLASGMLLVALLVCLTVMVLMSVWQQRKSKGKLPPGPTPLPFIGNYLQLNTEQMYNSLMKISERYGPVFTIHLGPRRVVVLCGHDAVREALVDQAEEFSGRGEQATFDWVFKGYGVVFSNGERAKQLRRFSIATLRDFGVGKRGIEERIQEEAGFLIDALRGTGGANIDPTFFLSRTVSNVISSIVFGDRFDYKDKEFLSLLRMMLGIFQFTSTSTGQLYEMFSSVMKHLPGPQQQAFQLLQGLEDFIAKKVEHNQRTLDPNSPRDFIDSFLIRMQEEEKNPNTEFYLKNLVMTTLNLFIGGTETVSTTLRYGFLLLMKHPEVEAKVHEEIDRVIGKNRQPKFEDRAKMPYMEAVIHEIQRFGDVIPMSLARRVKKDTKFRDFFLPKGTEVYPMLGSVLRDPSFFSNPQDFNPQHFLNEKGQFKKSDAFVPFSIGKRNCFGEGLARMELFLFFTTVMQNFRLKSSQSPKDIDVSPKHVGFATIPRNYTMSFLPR
Conditions: bti-tn-5b1-4.

For data set [4], the target named is T4, Alpha-1B adrenergic receptor (Rattus norvegicus, UniProt P15823).
T4 sequence (P15823 whole entry): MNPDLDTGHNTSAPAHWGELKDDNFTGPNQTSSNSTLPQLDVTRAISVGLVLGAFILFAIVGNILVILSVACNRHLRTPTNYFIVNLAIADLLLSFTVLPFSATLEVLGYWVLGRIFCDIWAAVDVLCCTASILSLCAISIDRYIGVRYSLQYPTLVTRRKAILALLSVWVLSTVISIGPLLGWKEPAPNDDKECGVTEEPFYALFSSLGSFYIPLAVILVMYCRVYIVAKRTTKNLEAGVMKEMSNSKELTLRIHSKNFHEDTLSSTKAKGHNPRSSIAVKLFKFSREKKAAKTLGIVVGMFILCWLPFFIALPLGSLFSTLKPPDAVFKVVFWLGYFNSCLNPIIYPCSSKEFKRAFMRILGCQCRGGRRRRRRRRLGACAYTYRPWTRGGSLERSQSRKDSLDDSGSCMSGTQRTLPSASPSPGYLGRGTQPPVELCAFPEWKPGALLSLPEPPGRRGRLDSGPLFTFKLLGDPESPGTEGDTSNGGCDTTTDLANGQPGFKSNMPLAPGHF
The data set is described as follows: DRUGMATRIX: Alpha-1B adrenergic receptor radioligand binding (ligand: prazosin). In kind it is cell membranes, Wistar, Liver, Membrane. Conditions: Not Active = under 50% inhibition at 10 µM.

pIC50, pKi: −log10 of the molar value.

Chain of Mu-type opioid receptor (P35372 whole entry): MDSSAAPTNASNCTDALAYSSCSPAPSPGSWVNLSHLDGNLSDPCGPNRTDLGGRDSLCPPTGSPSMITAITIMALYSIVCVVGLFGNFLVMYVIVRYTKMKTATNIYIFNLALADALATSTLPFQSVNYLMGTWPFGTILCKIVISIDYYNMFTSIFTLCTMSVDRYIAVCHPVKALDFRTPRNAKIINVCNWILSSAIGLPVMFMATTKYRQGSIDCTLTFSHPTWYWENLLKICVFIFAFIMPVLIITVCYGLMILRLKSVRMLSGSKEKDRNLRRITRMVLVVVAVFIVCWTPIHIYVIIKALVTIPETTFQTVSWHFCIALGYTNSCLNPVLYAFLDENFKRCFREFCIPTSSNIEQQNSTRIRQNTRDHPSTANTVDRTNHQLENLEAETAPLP

Regarding `Cc1ccc(Cl)c(Nc2ccccc2C(=O)O)c1Cl` [MECLOFENAMIC ACID], the IC50 entry (in data set [1]; in data set [2]; at Mu-type opioid receptor; in data set [3]; on Cytochrome P450 2A6; in data set [4]) was “Not Active” throughout. Further, the Ki entry (in data set [2]; on Cytochrome P450 2A6) was “Not Active” throughout.
Regarding `CCOc1cc(N)c(Cl)cc1C(=O)NCC1CN(Cc2ccc(F)cc2)CCO1` (centres undefined) [MOSAPRIDE], the pIC50 in data set [1] (read-out: IC50) is 6.40; in data set [3] (read-out: IC50), 5.43. Besides, the pKi in data set [1] (read-out: Ki) was 6.68; in data set [3] (read-out: Ki), 5.86. Moreover, the IC50 result (in data set [2]; on Mu-type opioid receptor; at Cytochrome P450 2A6; in data set [4]) was “Not Active” in each case. Moreover, the Ki entry (in data set [2]; at Cytochrome P450 2A6) was “Not Active” in each case.
Take `CN1C(=O)OC(C)(C)C1=O` [TRIMETHADIONE]: the IC50 result (in data set [1]; in data set [2]; at Mu-type opioid receptor; in data set [3]; against Cytochrome P450 2A6; in data set [4]) was “Not Active” in each case. The Ki entry (in data set [2]; at Cytochrome P450 2A6) was “Not Active” each time.
On to `CC1(C)[C@H](C(=O)O)N2C(=O)C[C@H]2S1(=O)=O` [SULBACTAM], for which the IC50 result (in data set [1]; in data set [2]; on Mu-type opioid receptor; in data set [3]; at Cytochrome P450 2A6; in data set [4]) was “Not Active” throughout. The Ki result (in data set [2]; at Cytochrome P450 2A6) was “Not Active” each time.
